Measured values from ChEMBL document CHEMBL1201862, “PubChem BioAssay data set” (2004).
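A five-concentration, 48-hour dose response in 96-well plates underlies each endpoint, interpolated linearly between surrounding concentrations. GI50: concentration for 50% inhibition of growth.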 The source made the active and inactive calls. No stated cut-off is given here; in the data, active = GI50 up to about 1.1 µM and inactive = higher.

Assays:
Test in all cases: inhibition of tumour cell growth, NCI panel, 48 h
[1] = tested on: HCT-116
[2] = tested on: HCC 2998
[3] = tested on: A498
[4] = tested on: UO-31
[5] = tested on: M14
[6] = tested on: RPMI-8226
[7] = tested on: ACHN
[8] = tested on: UACC-62
[9] = tested on: KM12
[10] = tested on: HCT-15
[11] = tested on: UACC-257
[12] = tested on: SF-539
[13] = tested on: SK-MEL-2
[14] = tested on: HL-60
[15] = tested on: RXF 393
[16] = tested on: SF-268
[17] = tested on: CCRF-CEM
[18] = tested on: OVCAR-5
[19] = tested on: U-251
[20] = tested on: NCI/ADR-RES
[21] = tested on: SK-MEL-28
[22] = tested on: MDA-MB-435
[23] = tested on: HOP-92
[24] = tested on: T47D
[25] = tested on: IGROV-1
[26] = tested on: SW-620
[27] = tested on: DU-145
[28] = tested on: NCI-H522
[29] = tested on: LOX IMVI
[30] = tested on: COLO 205
[31] = tested on: OVCAR-3
[32] = tested on: SK-OV-3
[33] = tested on: MDA-MB-231
[34] = tested on: PC-3
[35] = tested on: OVCAR-8
[36] = tested on: SR
[37] = tested on: NCI-H460
[38] = tested on: A549
[39] = tested on: CAKI-1
[40] = tested on: NCI-H226
[41] = tested on: HOP-62
[42] = tested on: TK-10
[43] = tested on: HT-29
[44] = tested on: BT-549
[45] = tested on: NCI-H23
[46] = tested on: SK-MEL-5
[47] = tested on: SNB-75
[48] = tested on: EKVX
[49] = tested on: 786-0
[50] = tested on: MOLT-4
[51] = tested on: MCF7
[52] = tested on: K562
[53] = tested on: OVCAR-4
[54] = tested on: SF-295
[55] = tested on: SN12C
[56] = tested on: Malme-3M
[57] = tested on: SNB-19
[58] = tested on: Hs-578T
[59] = tested on: MDA-N

With `CC(C)(C)c1cc(-c2cc(C(C)(C)C)n(-c3ccccc3)n2)nn1-c1ccccc1` the GI50 [1] was > 100 µM (inactive), the GI50 [2] was 31.3 µM (inactive) and the GI50 [3] was > 100 µM (inactive). The GI50 [4] was 30.4 µM (inactive), the GI50 [5] was > 100 µM (inactive) and the GI50 [6] was > 100 µM (inactive). The GI50 [7] was 23.2 µM (inactive), the GI50 [8] was 11.6 µM (inactive) and the GI50 [9] was 84.5 µM (inactive). For the same compound, the GI50 [10] was > 100 µM, the GI50 [11] was > 100 µM (inactive) and the GI50 [12] was > 100 µM (inactive). The GI50 [13] was > 100 µM (inactive), the GI50 [14] was > 100 µM (inactive) and the GI50 [15] was > 100 µM (inactive). The GI50 [16] was > 100 µM (inactive), the GI50 [17] was > 100 µM (inactive) and the GI50 [18] was > 100 µM (inactive). The GI50 [19] was > 100 µM (inactive), the GI50 [20] was > 100 µM (inactive) and the GI50 [21] was > 100 µM (inactive). The GI50 [22] was 49.8 µM (inactive), the GI50 [23] was > 100 µM (inactive) and the GI50 [24] was 59.2 µM (inactive). For the same compound, the GI50 [25] was > 100 µM (inactive), the GI50 [26] was 8.57 µM (inactive) and the GI50 [27] was > 100 µM (inactive). The GI50 [28] was > 100 µM (inactive), the GI50 [29] was 6.43 µM (inactive) and the GI50 [30] was 48.6 µM (inactive). For the same compound, the GI50 [31] was > 100 µM (inactive), the GI50 [32] was > 100 µM (inactive) and the GI50 [33] was > 100 µM (inactive). For the same compound, the GI50 [34] was 65.6 µM (inactive), the GI50 [35] was > 100 µM (inactive) and the GI50 [36] was > 100 µM (inactive). For the same compound, the GI50 [37] was 61.5 µM (inactive), the GI50 [38] was > 100 µM (inactive) and the GI50 [39] was > 100 µM (inactive). For the same compound, the GI50 [40] was > 100 µM (inactive), the GI50 [41] was > 100 µM (inactive) and the GI50 [42] was > 100 µM (inactive). For the same compound, the GI50 [43] was 68.9 µM (inactive), the GI50 [44] was > 100 µM (inactive) and the GI50 [45] was > 100 µM (inactive). The GI50 [46] was > 100 µM (inactive), the GI50 [47] was > 100 µM (inactive) and the GI50 [48] was > 100 µM (inactive). The GI50 [49] was > 100 µM (inactive), the GI50 [50] was > 100 µM (inactive) and the GI50 [51] was > 100 µM (inactive). The GI50 [52] was 3.27 µM (inactive), the GI50 [53] was > 100 µM (inactive) and the GI50 [54] was > 100 µM (inactive). For the same compound, the GI50 [55] was > 100 µM (inactive).
With `COC(=O)C1=C(C)NC(C)=C(C(=O)OCCCN2CCC(c3ccccc3)(c3ccccc3)CC2)[C@H]1c1cccc([N+](=O)[O-])c1` [NIGULDIPINE] the GI50 [1] was 1.51 µM (inactive), the GI50 [2] was 2.24 µM (inactive) and the GI50 [3] was 4.53 µM (inactive). The GI50 [4] was 2 µM (inactive), the GI50 [5] was 1.69 µM (inactive) and the GI50 [6] was 1.61 µM (inactive). For the same compound, the GI50 [7] was 1.66 µM (inactive), the GI50 [8] was 1.61 µM (inactive) and the GI50 [9] was 1.77 µM (inactive). The GI50 [10] was 1.94 µM, the GI50 [11] was 1.66 µM (inactive) and the GI50 [12] was 1.8 µM (inactive). For the same compound, the GI50 [13] was 2.41 µM (inactive), the GI50 [14] was 1.16 µM (inactive) and the GI50 [15] was 1.86 µM (inactive). For the same compound, the GI50 [16] was 1.79 µM (inactive), the GI50 [17] was 1.14 µM (inactive) and the GI50 [18] was 2.9 µM (inactive). The GI50 [19] was 1.8 µM (inactive), the GI50 [20] was 1.73 µM (inactive) and the GI50 [21] was 1.88 µM (inactive). For the same compound, the GI50 [22] was 1.63 µM (inactive), the GI50 [23] was 1.39 µM (inactive) and the GI50 [24] was 11.5 µM (inactive). For the same compound, the GI50 [25] was 1.8 µM (inactive), the GI50 [26] was 1.92 µM (inactive) and the GI50 [27] was 1.86 µM (inactive). For the same compound, the GI50 [28] was 2.49 µM (inactive), the GI50 [56] was 2.07 µM (inactive) and the GI50 [29] was 1.62 µM (inactive). The GI50 [30] was 1.57 µM (inactive), the GI50 [31] was 1.46 µM (inactive) and the GI50 [32] was 5.24 µM (inactive). For the same compound, the GI50 [33] was 1.3 µM (inactive), the GI50 [34] was 1.52 µM (inactive) and the GI50 [35] was 1.95 µM (inactive). For the same compound, the GI50 [36] was 2.26 µM (inactive), the GI50 [57] was 1.7 µM (inactive) and the GI50 [37] was 1.81 µM (inactive). The GI50 [38] was 1.79 µM (inactive), the GI50 [39] was 3.98 µM (inactive) and the GI50 [40] was 3.25 µM (inactive). For the same compound, the GI50 [41] was 4.6 µM (inactive), the GI50 [42] was 2.91 µM (inactive) and the GI50 [43] was 1.3 µM (inactive). For the same compound, the GI50 [58] was 1.69 µM (inactive), the GI50 [45] was 1.75 µM (inactive) and the GI50 [59] was 1.97 µM (inactive). For the same compound, the GI50 [46] was 1.75 µM (inactive), the GI50 [47] was 1.37 µM (inactive) and the GI50 [48] was 2 µM (inactive). The GI50 [49] was 1.61 µM (inactive), the GI50 [50] was 1.95 µM (inactive) and the GI50 [51] was 2.07 µM (inactive). The GI50 [52] was 0.946 µM (active), the GI50 [53] was 1.55 µM (inactive) and the GI50 [54] was 1.73 µM (inactive). The GI50 [55] was 1.58 µM (inactive).
